# Like-named read-outs stand apart in the source and are kept apart here.
# Legend:
# [1] = system: production and secretion of NGF in brain astroglial cells; assay: Promoting activity for the production and secretion of NGF in brain astroglial cells of mouse (ELISA)
# Protocol: The experiment was performed by inducing the astroglial cells from mouse forebrain to culture system according to the procedures of S. Furukawa et al. which is described in Biochem. Biophys. Res. Commun., 136, 57-63 (1986).
# That is, forebrains of 8-day old mice were dissected out and cut into small pieces. […] Cells and cell clamps were recovered by centrifugation at 200 xg for 5 minutes. They were cultured in Dulbecco modified Eagle's medium (a product of Gibco Co. hereinafter abbreviated as DMEM) containing 10% of fetal calf serum, […] of penicillin, and 50 μg/ml of streptomycin, for 10 to 14 days with medium changes every 3 days. After completing confluency, the cells were dissociated by trypsin treatment and recultured in new culture flasks. This procedure was repeated further twice and more. […] The cells will hereinafter be referred to as astroglial cells.
# Astroglial cells were innoculated in 24-well plates having a well surface area of 2.1 cm^2 (a product of Falcon Co.) at a cell density of about 3×10^4 cells/well and cultured for 3 days in DMEM . medium supplemented with 10% of fetal calf serum. After completing confluency about 10^7 cells/well), the medium was changed to DMEM medium (0.5 ml/well) supplemented with 0.5% of bovine serum albumin ((fraction V) and cultured for 3 days. The culture was further continued with medium changes every 3 days. After cells were practically synchronized in the quiscent stage, the medium was changed to 0.5 ml of the medium supplemented with 0.5% of bovine serum albumin and containing a prescribed concentration of test sample as illustrated in Tables. […] Data are expressed as fold increase in NGF content over that in the absence of the test sample. […] Data are presented as means ±SE of four determinations.
# [2] = system: production and secretion of NGF on L-M cells; assay: Promoting action for the production and secretion of NGF on L-M cells of mouse (ELISA); type: cell-based; conditions: for Ratio of NGF increase: 1440 min
# Source text: Catecholamines have also been found in a relatively high concentration to accelerate these functions without being mediated by adrenergic receptors [Y. Furukawa et al., J. Biol. Chem., 261, 6039-6047 (1986)].
# The compound having a high activity in Table 1, that is, the catechol derivative having a n-alkyl group in the 3 or 4 position on the ring has been observed an acute cell toxicity in higher concentrations. The toxicity was considered the result of two hydroxyl groups in the catechol structure. Then the hydroxyl groups were esterified or etherified and the resulting derivative was examined the effect on the activity for the production and secretion of NGF.
# The experiment was performed according to the procedures of Y. Furukawa et al. which is described in J. Bis Chem., 261, 6039-6047 (1986).
# The medium was cultured for 3 days at a temperature of 37° C. After completing the confluency (about 10^6 cells/well), the medium was changed to Medium 199 (0.5 ml/well) containing 0.5% bovine serum albumin (Fraction V, a product of Armour Co.). The sample of the derivative is contained in the medium at a prescribed concentration as illustrated in the Tables.
# [3] = 24 h, read-out: Ratio of NGF increase, Table 3, 0.10 mM, 24 hours, mean ± SE of four determinations
# [4] = 24 h, read-out: Ratio of NGF increase, Table 3, 0.25 mM, 24 hours, mean ± SE of four determinations
# [5] = Mus musculus, 24 h, Table 1, 0.03 mM, 24 hours, mean ± SE of four determinations, read-out: Ratio of NGF increase
# [6] = 24 h, read-out: Ratio of NGF increase, 24-hr culture, Table 4, 0.10 mM, 24-hr culture
# [7] = 24 h, read-out: Ratio of NGF increase, 24-hr culture, Table 4, 0.25 mM, 24-hr culture
# [8] = 48 h, read-out: Ratio of NGF increase, 48-hr culture, Table 4, 0.10 mM, 48-hr culture
# [9] = 48 h, read-out: Ratio of NGF increase, 48-hr culture, Table 4, 0.25 mM, 48-hr culture
# [10] = Mus musculus, 24 h, Table 2, 0.03 mM, 24-hr culture, read-out: Ratio of NGF increase, 24-hr culture
# [11] = Mus musculus, 24 h, Table 2, 0.15 mM, 24-hr culture, read-out: Ratio of NGF increase, 24-hr culture
# [12] = Mus musculus, 48 h, Table 2, 0.03 mM, 48-hr culture, read-out: Ratio of NGF increase, 48-hr culture
# [13] = Mus musculus, 48 h, Table 2, 0.15 mM, 48-hr culture, read-out: Ratio of NGF increase, 48-hr culture
# [14] = Mus musculus, 24 h, Table 1, 0.10 mM, 24 hours, mean ± SE of four determinations, read-out: Ratio of NGF increase
# [15] = 24 h, read-out: Ratio of NGF increase
# [16] = Mus musculus, 24 h, read-out: Ratio of NGF increase
# [17] = Mus musculus, 24 h, read-out: Ratio of NGF increase, 24-hr culture
# [18] = Mus musculus, 48 h, read-out: Ratio of NGF increase, 48-hr culture
structure (smiles),measurement,setting,value
"CCCCc1cccc(O)c1O [R = Two H, R1 = n-Butyl, R2 = H]",fold induction at 100 µM,[1]; [3],56.2 ± 1.87
same,fold induction at 250 µM,[1]; [4],93.3 ± 1.65
same,fold induction at 30 µM,[2]; [5],8.33 ± 0.52
"Cc1ccc2c(c1)OC(C)(C)O2 [C(CH3)2 -, R1 = H, R2 = Methyl, 5,2,2-trimethyl-1,3-benzodioxol]",fold induction at 100 µM,[1]; [6],28.6 ± 2.23
same,fold induction at 250 µM,[1]; [7],33.7 ± 2.09
same,fold induction at 100 µM,[1]; [8],41.6 ± 2.21
same,fold induction at 250 µM,[1]; [9],55.2 ± 4.42
same,fold induction at 30 µM,[2]; [10],1.35 ± 0.12
same,fold induction at 150 µM,[2]; [11],1.22 ± 0.08
same,fold induction at 30 µM,[2]; [12],4.33 ± 1.05
same,fold induction at 150 µM,[2]; [13],3.86 ± 0.84
"CCc1ccc(O)c(O)c1C [R = Two H, R1 = Methyl, R2 = Ethyl]",fold induction at 100 µM,[1]; [3],50.3 ± 6.27
same,fold induction at 250 µM,[1]; [4],26.2 ± 2.6
same,fold induction at 30 µM,[2]; [5],6.31 ± 0.39
same,fold induction at 100 µM,[2]; [14],3.19 ± 0.73
same,Ratio of NGF increase,"[2]; Table 1, 0.03 mM, 24 hours, mean ± SE of four determinations, 30 µM",5.39 ± 0.31 fold
same,Ratio of NGF increase,"[2]; Table 1, 0.10 mM, 24 hours, mean ± SE of four determinations, 100 µM",5.22 ± 0.27 fold
"CCCc1c(C)ccc(O)c1O [R = Two H, R1 = n-Propyl, R2 = Methyl]",fold induction at 30 µM,[2]; [5],6.09 ± 0.65
same,fold induction at 100 µM,[2]; [14],6.98 ± 0.51
"CNC[C@H](O)c1ccc(O)c(O)c1 [l-epinephrine, reference compound]",fold induction at 100 µM,"[1]; 24 h, read-out: activity (NGF increase), 0.10 mM",8.62 ± 1.21
same,fold induction at 250 µM,"[1]; 24 h, read-out: activity (NGF increase), 0.25 mM",14.6 ± 2.67
same,fold induction at 50 µM,"[2]; Mus musculus, 24 h, read-out: activity (NGF increase), 0.05 mM",6.29 ± 0.11
same,fold induction at 150 µM,"[2]; Mus musculus, 24 h, read-out: activity (NGF increase), 0.15 mM",14 ± 0.83
"COc1ccc(C)cc1O [4-Methylguaiacol, reference compound]",fold induction at 30 µM,[2]; [10],1.09 ± 0.06
same,fold induction at 150 µM,[2]; [11],1.03 ± 0.05
same,fold induction at 30 µM,[2]; [12],1.1 ± 0.07
same,fold induction at 150 µM,[2]; [13],1 ± 0.09
"Cc1ccc2oc(=O)c(=O)oc2c1 [CO.CO-, R1 = H, R2 = Methyl, 6-methyl-1,4-benzodioxine-2,3-dione]",fold induction at 100 µM,[1]; [6],47.2 ± 3.98
same,fold induction at 250 µM,[1]; [7],50.6 ± 4.74
same,fold induction at 100 µM,[1]; [8],69.6 ± 3.25
same,fold induction at 250 µM,[1]; [9],70.2 ± 5.37
same,fold induction at 30 µM,[2]; [10],4.24 ± 0.58
same,fold induction at 150 µM,[2]; [11],4.62 ± 0.61
same,fold induction at 30 µM,[2]; [12],7.6 ± 0.43
same,fold induction at 150 µM,[2]; [13],7.03 ± 0.69
"CCCCCc1ccc(O)c(O)c1 [R = Two H, R1 = H, R2 = n-Pentyl]",fold induction at 100 µM,[1]; [3],43.8 ± 4.71
same,fold induction at 250 µM,[1]; [4],61 ± 5.82
same,fold induction at 30 µM,[2]; [5],6.37 ± 0.25
same,fold induction at 100 µM,[2]; [14],10.2 ± 0.71
"CCc1ccc(O)c(O)c1CC [R = Two H, R1 = Ethyl, R2 = Ethyl]",fold induction at 100 µM,[1]; [3],16.7 ± 1.84
same,fold induction at 250 µM,[1]; [4],23.6 ± 1.9
same,fold induction at 30 µM,[2]; [5],3.01 ± 0.2
same,fold induction at 100 µM,[2]; [14],3.24 ± 0.19
"Oc1ccccc1O [R = Two H, R1 = H, R2 = H, Catechol]",fold induction at 100 µM,[1]; [15],2.51 ± 0.07
same,fold induction at 250 µM,[1]; [15],1.92 ± 0.09
same,fold induction at 30 µM,[2]; [16],1.03 ± 0.04
same,fold induction at 100 µM,[2]; [16],1.81 ± 0.09
same,fold induction at 30 µM,[2]; [17],1.15 ± 0.04
same,fold induction at 150 µM,[2]; [17],1.93 ± 0.12
same,fold induction at 30 µM,[2]; [18],1.31 ± 0.09
same,fold induction at 150 µM,[2]; [18],1.79 ± 0.2
"Cc1ccc(O)c(O)c1C [R = Two H, R1 = Methyl, R2 = Methyl]",fold induction at 30 µM,[2]; [5],2.86 ± 0.12
same,fold induction at 100 µM,[2]; [14],3.11 ± 0.22
"CCC(C)c1ccc(O)c(O)c1 (stereo not shown) [R = Two H, R1 = H, R2 = sec-Butyl]",fold induction at 100 µM,[1]; [3],36.3 ± 3.49
same,fold induction at 250 µM,[1]; [4],70.1 ± 5.75
same,fold induction at 30 µM,[2]; [5],9.23 ± 1.41
same,fold induction at 100 µM,[2]; [14],14.7 ± 1.87
"CCc1cccc(O)c1O [R = Two H, R1 = Ethyl, R2 = H]",fold induction at 100 µM,[1]; [15],46.2 ± 3.97
same,fold induction at 250 µM,[1]; [15],62.8 ± 4.42
same,fold induction at 30 µM,[2]; [16],9.76 ± 1.4
same,fold induction at 100 µM,[2]; [16],11.7 ± 2.13
